Data: ChEMBL document CHEMBL5352448, “Novel tryptanthrin derivatives with benzenesulfonamide substituents: Design, synthesis, and anti-inflammatory evaluation” (Eur J Med Chem, 2023)
Activity calls are given as the source filed them. No cut-off for these calls is given here.

Columns and labels:
RAW264.7 [1] = experiment: Cytotoxicity against mouse RAW264.7 cells assessed as reduction in cell viability at 40 uM incubated for 24 hrs by MTT assay; assay type: toxicity, cell-based; conditions: raw264.7, 24 h
RAW264.7 [2] = experiment: Antiinflammatory activity in mouse RAW264.7 cells assessed as inhibition of LPS-induced NO production at 20 uM preincubated with compound for 1 hrs followed by LPS-stimulation and measured after 24 hrs by griess reagent based assay relative to control; assay type: functional
RAW264.7 [3] = experiment: Antiinflammatory activity in mouse RAW264.7 cells assessed as inhibition of LPS-induced NO production preincubated with compound for 1 hrs followed by LPS-stimulation and measured after 24 hrs by griess reagent based assay; assay type: functional, cell-based
RAW264.7 [4] = experiment: Antiinflammatory activity in mouse RAW264.7 cells assessed as inhibition of LPS-induced TNF-alpha production preincubated with compound for 1 hrs followed by LPS-stimulation and measured after 24 hrs by ELISA analysis; assay type: functional, cell-based
RAW264.7 [5] = experiment: Antiinflammatory activity in mouse RAW264.7 cells assessed as inhibition of LPS-induced IL-1beta production preincubated with compound for 1 hrs followed by LPS-stimulation and measured after 24 hrs by ELISA analysis; assay type: functional, cell-based
RAW264.7 [6] = experiment: Antiinflammatory activity in mouse RAW264.7 cells assessed as suppression of LPS-induced iNOS expression preincubated with compound for 1 hrs followed by LPS-stimulation and measured after 24 hrs by Western blot analysis; assay type: functional, cell-based; conditions: dose 1-5 µM
RAW264.7 [7] = experiment: Antiinflammatory activity in mouse RAW264.7 cells assessed as suppression of LPS-induced COX-2 expression preincubated with compound for 1 hrs followed by LPS-stimulation and measured after 24 hrs by Western blot analysis; assay type: functional, cell-based; conditions: dose 1-5 µM
[8] = molecular target: Mitogen-activated protein kinase 14 (Mus musculus) (UniProt P47811); experiment: Thermal stabilization of P38alpha in LPS-induced mouse RAW264.7 cells at 30 uM preincubated with compound for 1 hrs followed by LPS stimulation and measured after 24 hrs at 50 to 55 degreeC by cellular thermal shift assay; assay type: cell-based
Mitogen-activated protein kinase 14 (Mus musculus), sequence (P47811 whole entry): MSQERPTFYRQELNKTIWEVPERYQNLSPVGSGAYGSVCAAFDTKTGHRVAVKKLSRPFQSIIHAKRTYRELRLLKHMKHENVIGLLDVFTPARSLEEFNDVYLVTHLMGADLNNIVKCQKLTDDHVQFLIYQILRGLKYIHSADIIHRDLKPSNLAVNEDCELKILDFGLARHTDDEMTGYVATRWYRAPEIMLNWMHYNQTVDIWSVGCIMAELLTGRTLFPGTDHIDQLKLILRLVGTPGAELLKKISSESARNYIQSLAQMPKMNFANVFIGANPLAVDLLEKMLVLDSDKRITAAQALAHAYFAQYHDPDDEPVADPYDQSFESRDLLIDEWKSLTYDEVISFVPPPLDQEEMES

Rattus norvegicus [9] = experiment: Antiarthritic activity against adjuvant arthritis-induced Sprague-Dawley rat model assessed as decrease in paw swelling pre-administered with FCA for 10 days followed by intragastric administration of compound once daily for 14 days and measured every 4 days; assay type: functional, organism-based; conditions: dose 10-30 mg/kg, route ig, time 14.0 day
Rattus norvegicus [10] = experiment: Antiarthritic activity against adjuvant arthritis-induced Sprague-Dawley rat model assessed as improvement of arthritic index at 10 to 30 mg/kg, IG pre-administered with FCA for 10 days followed by compound administration once daily for 14 days and measured every 4 days; assay type: functional, organism-based; conditions: dose 10-30 mg/kg, time 14.0 day
Rattus norvegicus [11] = experiment: Antiarthritic activity against adjuvant arthritis-induced Sprague-Dawley rat model assessed as reduction in body weight loss at 10 to 30 mg/kg, IG pre-administered with FCA for 10 days followed by compound administration once daily for 14 days and measured every 4 days; assay type: functional, organism-based; conditions: dose 10-30 mg/kg, time 14.0 day
Rattus norvegicus [12] = experiment: Antiarthritic activity against adjuvant arthritis-induced Sprague-Dawley rat model assessed as alleviation of synovial cell proliferation at 10 to 30 mg/kg, IG pre-administered with FCA for 10 days followed by compound administration once daily for 14 days by H&E staining microscopic analysis; assay type: functional, organism-based; conditions: dose 10-30 mg/kg, time 14.0 day
Rattus norvegicus [13] = experiment: Antiarthritic activity against adjuvant arthritis-induced Sprague-Dawley rat model assessed as alleviation of inflammatory cell infiltration at 10 to 30 mg/kg, IG pre-administered with FCA for 10 days followed by compound administration once daily for 14 days by H&E staining microscopic analysis; assay type: functional, organism-based; conditions: dose 10-30 mg/kg, time 14.0 day
Rattus norvegicus [14] = experiment: Antiarthritic activity against adjuvant arthritis-induced Sprague-Dawley rat model assessed as decrease in IL-1beta level in serum pre-administered with FCA for 10 days followed by intragastric administration of compound once daily for 14 days by ELISA analysis; assay type: functional, organism-based; conditions: dose 10-30 mg/kg, route ig, time 14.0 day
Rattus norvegicus [15] = experiment: Antiarthritic activity against adjuvant arthritis-induced Sprague-Dawley rat model assessed as decrease in TNF-alpha level in serum pre-administered with FCA for 10 days followed by intragastric administration of compound once daily for 14 days by ELISA analysis; assay type: functional, organism-based; conditions: dose 10-30 mg/kg, route ig, time 14.0 day
[16] = molecular target: T1, MAP kinase p38 (Mus musculus) (UniProt P47811+O08911+Q9WUI1+Q9Z1B7); experiment: Inhibition of LPS-induced p38 MAPK signaling activation in mouse RAW264.7 cells assessed as inhibition of p38 alpha phosphorylation preincubated with compound for 1 hrs followed by LPS stimulation and measured after 24 hrs by Western blot analysis; assay type: cell-based; conditions: dose 1-5 µM
[17] = molecular target: T1, MAP kinase p38 (Mus musculus); experiment: Inhibition of LPS-induced p38 MAPK signaling activation in mouse RAW264.7 cells assessed as reduction of MK2 phosphorylation preincubated with compound for 1 hrs followed by LPS stimulation and measured after 24 hrs by Western blot analysis; assay type: cell-based; conditions: dose 1-5 µM

Row | Compound | Activity (RAW264.7 [1]) | inhibition at 20 µM (RAW264.7 [2]) [%] | further results
1 | O=C1c2cc(NS(=O)(=O)c3cccc(F)c3)ccc2-n2c1nc1ccccc1c2=O | Non-Toxic | 37.5 | –
2 | Cc1ccc(S(=O)(=O)Nc2ccc3nc4n(c(=O)c3c2)-c2ccccc2C4=O)cc1 | Non-Toxic | 90.2 | IC50 (RAW264.7 [3]): 2.89 µM
3 | O=C1c2cc(NS(=O)(=O)c3ccc(Br)cc3)ccc2-n2c1nc1ccccc1c2=O | Non-Toxic | 18.8 | –
4 | O=C1c2cc(NS(=O)(=O)c3ccc(OC(F)(F)F)cc3)ccc2-n2c1nc1ccccc1c2=O | Non-Toxic | 42.9 | –
5 | O=C1c2ccccc2-n2c1nc1ccc(NS(=O)(=O)c3c(Cl)cccc3Cl)cc1c2=O | Non-Toxic | 64.4 | –
6 | O=C1c2ccccc2-n2c1nc1ccc(NS(=O)(=O)c3ccc(Br)cc3)cc1c2=O | Non-Toxic | 34.2 | –
7 | O=C1c2ccccc2-n2c1nc1ccc(NS(=O)(=O)c3ccccc3)cc1c2=O | Non-Toxic | 14.5 | –
8 | COc1ccc(S(=O)(=O)Nc2ccc3nc4n(c(=O)c3c2)-c2ccccc2C4=O)c(OC)c1 | Non-Toxic | 78 | –
9 | O=C1c2cc(NS(=O)(=O)c3ccc(F)cc3)ccc2-n2c1nc1ccccc1c2=O | Non-Toxic | 42.5 | –
10 | O=C1c2ccccc2-n2c1nc1ccc(NS(=O)(=O)c3cccc(F)c3)cc1c2=O | Non-Toxic | 64.4 | –
11 | O=C1c2ccccc2-n2c1nc1ccc(NS(=O)(=O)c3ccccc3OC(F)(F)F)cc1c2=O | Non-Toxic | 82.1 | IC50 (RAW264.7 [3]): 3.88 µM
12 | Nc1ccc2nc3n(c(=O)c2c1)-c1ccccc1C3=O | – | 38.1 | –
13 | O=C1c2cc(NS(=O)(=O)c3c(Cl)cccc3Cl)ccc2-n2c1nc1ccccc1c2=O | Non-Toxic | 38.4 | –
14 | COc1ccc(S(=O)(=O)Nc2ccc3c(c2)C(=O)c2nc4ccccc4c(=O)n2-3)cc1 | Non-Toxic | 56.4 | –
15 | CC(=O)Nc1ccc(S(=O)(=O)Nc2ccc3c(c2)C(=O)c2nc4ccccc4c(=O)n2-3)cc1 | Non-Toxic | 17.3 | –
16 | COc1ccc(S(=O)(=O)Nc2ccc3nc4n(c(=O)c3c2)-c2ccccc2C4=O)cc1 | Non-Toxic | 94 | IC50 (RAW264.7 [3]): 1.25 µM; Activity (RAW264.7 [4]): Dose-Dependent Effect; IC50 (RAW264.7 [4]): 11.5 µM; Activity (RAW264.7 [5]): Dose-Dependent Effect; IC50 (RAW264.7 [5]): 8.48 µM; Activity (RAW264.7 [6]): Dose-Dependent Effect; Activity (RAW264.7 [7]): Dose-Dependent Effect; Activity [8]: Active; Activity (Rattus norvegicus [9]): Dose-Dependent Effect; Activity (Rattus norvegicus [10]): Active; Activity (Rattus norvegicus [11]): Active; Activity (Rattus norvegicus [12]): Active; Activity (Rattus norvegicus [13]): Active; Activity (Rattus norvegicus [14]): Dose-Dependent Effect; Activity (Rattus norvegicus [15]): Dose-Dependent Effect; inhibition [16]: Dose-Dependent Effect; inhibition [17]: Dose-Dependent Effect
17 | O=C1c2ccccc2-n2c1nc1ccc(NS(=O)(=O)c3ccc(OC(F)(F)F)cc3)cc1c2=O | Non-Toxic | 63.6 | –
18 | COc1ccc(S(=O)(=O)Nc2ccc3c(c2)C(=O)c2nc4ccccc4c(=O)n2-3)c(OC)c1 | Non-Toxic | 55.1 | –

Row | Compound | Activity (RAW264.7 [1]) | inhibition at 20 µM (RAW264.7 [2]) [%] | further results
19 | CC(C)c1cc(C(C)C)c(S(=O)(=O)Nc2ccc3c(c2)C(=O)c2nc4ccccc4c(=O)n2-3)c(C(C)C)c1 | Non-Toxic | 31.6 | –
20 | O=C1c2ccccc2-n2c1nc1ccc(NS(=O)(=O)c3ccc(F)cc3)cc1c2=O | Non-Toxic | 85.4 | IC50 (RAW264.7 [3]): 2.73 µM
21 | O=C1c2cc(NS(=O)(=O)c3ccccc3OC(F)(F)F)ccc2-n2c1nc1ccccc1c2=O | Non-Toxic | 46.2 | –
22 | O=C1c2ccccc2-n2c1nc1ccc(NS(=O)(=O)c3ccccc3C(F)(F)F)cc1c2=O | Non-Toxic | 74.9 | –
23 | CC(C)c1cc(C(C)C)c(S(=O)(=O)Nc2ccc3nc4n(c(=O)c3c2)-c2ccccc2C4=O)c(C(C)C)c1 | Non-Toxic | 81.2 | IC50 (RAW264.7 [3]): 4.21 µM
24 | COc1ccc(S(=O)(=O)Nc2ccc3nc4n(c(=O)c3c2)-c2ccccc2C4=O)cc1OC | Non-Toxic | 73 | –
25 | COc1ccc2c(c1)c(CC(=O)O)c(C)n2C(=O)c1ccc(Cl)cc1 [INDOMETHACIN] | Non-Toxic | 32.1 | –
26 | O=C1c2cc(NS(=O)(=O)c3ccccc3C(F)(F)F)ccc2-n2c1nc1ccccc1c2=O | Non-Toxic | 54.3 | –
27 | Nc1ccc2c(c1)C(=O)c1nc3ccccc3c(=O)n1-2 | – | 26.7 | –
28 | CC(C)(C)c1ccc(S(=O)(=O)Nc2ccc3nc4n(c(=O)c3c2)-c2ccccc2C4=O)cc1 | Non-Toxic | 58.2 | –
29 | O=C1c2cc(NS(=O)(=O)c3ccccc3)ccc2-n2c1nc1ccccc1c2=O | Non-Toxic | 28.1 | –
30 | O=C1c2ccccc2-n2c1nc1ccc(NS(=O)(=O)c3ccccc3F)cc1c2=O | Non-Toxic | 88.2 | IC50 (RAW264.7 [3]): 2.72 µM
31 | O=C1c2ccccc2-n2c1nc1ccccc1c2=O [TRYPTANTHRIN] | – | 31.3 | –
32 | Cc1ccc(S(=O)(=O)Nc2ccc3c(c2)C(=O)c2nc4ccccc4c(=O)n2-3)cc1 | Non-Toxic | 55.8 | –
33 | CC(C)(C)c1ccc(S(=O)(=O)Nc2ccc3c(c2)C(=O)c2nc4ccccc4c(=O)n2-3)cc1 | Non-Toxic | 20.6 | –
34 | COc1ccc(S(=O)(=O)Nc2ccc3c(c2)C(=O)c2nc4ccccc4c(=O)n2-3)cc1OC | Non-Toxic | 57.2 | –
35 | O=C1c2cc(NS(=O)(=O)c3ccccc3F)ccc2-n2c1nc1ccccc1c2=O | Non-Toxic | 49.1 | –
36 | CC(=O)Nc1ccc(S(=O)(=O)Nc2ccc3nc4n(c(=O)c3c2)-c2ccccc2C4=O)cc1 | Non-Toxic | 47.2 | –
